Source: PubChem BioAssay (NCI)
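Compound exposure: 48 hours, 5 concentrations, 96-well plates. TGI: total growth inhibition.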

Experiments:
Assay in all cases: growth of human tumour cells (NCI), 48 h
SF-295 CNS = test system: SF-295 CNS
NCI-H460 lung = test system: NCI-H460 lung
ACHN renal = test system: ACHN renal
UO-31 renal = test system: UO-31 renal
HCC-2998 colon = test system: HCC-2998 colon
K-562 leukemia = test system: K-562 leukemia
MOLT-4 leukemia = test system: MOLT-4 leukemia
NCI-H23 lung = test system: NCI-H23 lung
COLO 205 colon = test system: COLO 205 colon
OVCAR-8 ovarian = test system: OVCAR-8 ovarian
SK-OV-3 ovarian = test system: SK-OV-3 ovarian
SK-MEL-2 melanoma = test system: SK-MEL-2 melanoma
TK-10 renal = test system: TK-10 renal
KM12 colon = test system: KM12 colon
SW-620 colon = test system: SW-620 colon
HOP-62 NSCLC = test system: HOP-62 NSCLC
SF-539 CNS = test system: SF-539 CNS
SN12C renal = test system: SN12C renal
LOX IMVI melanoma = test system: LOX IMVI melanoma
DMS 273 small cell lung = test system: DMS 273 small cell lung
SNB-19 CNS = test system: SNB-19 CNS
NCI-H226 lung = test system: NCI-H226 lung
M14 melanoma = test system: M14 melanoma
UACC-257 melanoma = test system: UACC-257 melanoma
DLD-1 colon = test system: DLD-1 colon
XF 498 CNS = test system: XF 498 CNS
MALME-3M melanoma = test system: MALME-3M melanoma
SNB-78 CNS = test system: SNB-78 CNS
NCI-H522 lung = test system: NCI-H522 lung
786-0 renal = test system: 786-0 renal
LXFL 529 NSCLC = test system: LXFL 529 NSCLC
UACC-62 melanoma = test system: UACC-62 melanoma
RXF 393 renal = test system: RXF 393 renal
RPMI-8226 leukemia = test system: RPMI-8226 leukemia
SK-MEL-28 melanoma = test system: SK-MEL-28 melanoma
EKVX NSCLC = test system: EKVX NSCLC
U251 CNS = test system: U251 CNS
HL-60(TB) leukemia = test system: HL-60(TB) leukemia
M19-MEL melanoma = test system: M19-MEL melanoma
OVCAR-5 ovarian = test system: OVCAR-5 ovarian
HCT-15 colon = test system: HCT-15 colon
OVCAR-4 ovarian = test system: OVCAR-4 ovarian
CAKI-1 renal = test system: CAKI-1 renal
SNB-75 CNS = test system: SNB-75 CNS
DMS 114 small cell lung = test system: DMS 114 small cell lung
SF-268 CNS = test system: SF-268 CNS
IGROV1 ovarian = test system: IGROV1 ovarian
CCRF-CEM leukemia = test system: CCRF-CEM leukemia
HOP-18 NSCLC = test system: HOP-18 NSCLC
KM20L2 colon = test system: KM20L2 colon
HT29 colon = test system: HT29 colon
A549 NSCLC = test system: A549 NSCLC
HCT-116 colon = test system: HCT-116 colon
SK-MEL-5 melanoma = test system: SK-MEL-5 melanoma
A498 renal = test system: A498 renal
HOP-92 NSCLC = test system: HOP-92 NSCLC
OVCAR-3 ovarian = test system: OVCAR-3 ovarian
SR leukemia = test system: SR leukemia

Structure (SMILES): CN1C(=O)CCC1c1ccc2c(c1)oc(=O)n2C (centres undefined)
- TGI (SF-295 CNS): > 100 µM
- TGI (NCI-H460 lung): > 100 µM
- TGI (ACHN renal): > 100 µM
- TGI (UO-31 renal): > 100 µM
- TGI (HCC-2998 colon): > 100 µM
- TGI (K-562 leukemia): > 100 µM
- TGI (MOLT-4 leukemia): > 100 µM
- TGI (NCI-H23 lung): > 100 µM
- TGI (COLO 205 colon): > 100 µM
- TGI (OVCAR-8 ovarian): > 100 µM
- TGI (SK-OV-3 ovarian): > 100 µM
- TGI (SK-MEL-2 melanoma): > 100 µM
- TGI (TK-10 renal): > 100 µM
- TGI (KM12 colon): > 100 µM
- TGI (SW-620 colon): > 100 µM
- TGI (HOP-62 NSCLC): > 100 µM
- TGI (SF-539 CNS): > 100 µM
- TGI (SN12C renal): > 100 µM
- TGI (LOX IMVI melanoma): > 100 µM
- TGI (DMS 273 small cell lung): > 100 µM
- TGI (SNB-19 CNS): > 100 µM
- TGI (NCI-H226 lung): > 100 µM
- TGI (M14 melanoma): > 100 µM
- TGI (UACC-257 melanoma): > 100 µM
- TGI (DLD-1 colon): > 100 µM
- TGI (XF 498 CNS): > 100 µM
- TGI (MALME-3M melanoma): > 100 µM
- TGI (SNB-78 CNS): > 100 µM
- TGI (NCI-H522 lung): > 100 µM
- TGI (786-0 renal): > 100 µM
- TGI (LXFL 529 NSCLC): > 100 µM
- TGI (UACC-62 melanoma): > 100 µM
- TGI (RXF 393 renal): > 100 µM
- TGI (RPMI-8226 leukemia): > 100 µM
- TGI (SK-MEL-28 melanoma): > 100 µM
- TGI (EKVX NSCLC): > 100 µM
- TGI (U251 CNS): > 100 µM
- TGI (HL-60(TB) leukemia): > 100 µM
- TGI (M19-MEL melanoma): > 100 µM
- TGI (OVCAR-5 ovarian): > 100 µM
- TGI (HCT-15 colon): > 100 µM
- TGI (OVCAR-4 ovarian): > 100 µM
- TGI (CAKI-1 renal): > 100 µM
- TGI (SNB-75 CNS): > 100 µM
- TGI (DMS 114 small cell lung): > 100 µM
- TGI (SF-268 CNS): > 100 µM
- TGI (IGROV1 ovarian): > 100 µM
- TGI (CCRF-CEM leukemia): > 100 µM
- TGI (HOP-18 NSCLC): > 100 µM
- TGI (KM20L2 colon): > 100 µM
- TGI (HT29 colon): > 100 µM
- TGI (A549 NSCLC): > 100 µM
- TGI (HCT-116 colon): > 100 µM

Structure (SMILES): CN(C)CCNC(=O)c1c2ccccc2cc2ccccc12
- TGI (SF-295 CNS): > 100 µM
- TGI (NCI-H460 lung): > 100 µM
- TGI (ACHN renal): > 100 µM
- TGI (UO-31 renal): > 100 µM
- TGI (HCC-2998 colon): > 100 µM
- TGI (K-562 leukemia): 67.1 µM
- TGI (MOLT-4 leukemia): 45 µM
- TGI (NCI-H23 lung): > 100 µM
- TGI (COLO 205 colon): 48.3 µM
- TGI (OVCAR-8 ovarian): > 100 µM
- TGI (SK-OV-3 ovarian): > 100 µM
- TGI (SK-MEL-2 melanoma): 36.8 µM
- TGI (TK-10 renal): > 100 µM
- TGI (KM12 colon): > 100 µM
- TGI (SW-620 colon): > 100 µM
- TGI (HOP-62 NSCLC): > 100 µM
- TGI (SF-539 CNS): > 100 µM
- TGI (SN12C renal): > 100 µM
- TGI (LOX IMVI melanoma): 30.1 µM
- TGI (DMS 273 small cell lung): > 100 µM
- TGI (SNB-19 CNS): > 100 µM
- TGI (SK-MEL-5 melanoma): 34.3 µM
- TGI (NCI-H226 lung): 48.5 µM
- TGI (M14 melanoma): 30.7 µM
- TGI (UACC-257 melanoma): 34.4 µM
- TGI (DLD-1 colon): > 100 µM
- TGI (A498 renal): > 100 µM
- TGI (HOP-92 NSCLC): > 100 µM
- TGI (XF 498 CNS): 44.8 µM
- TGI (OVCAR-3 ovarian): > 100 µM
- TGI (MALME-3M melanoma): > 100 µM
- TGI (SNB-78 CNS): > 100 µM
- TGI (SR leukemia): 26.3 µM
- TGI (786-0 renal): > 100 µM
- TGI (LXFL 529 NSCLC): 80.8 µM
- TGI (UACC-62 melanoma): 53.4 µM
- TGI (RXF 393 renal): 99 µM
- TGI (RPMI-8226 leukemia): > 100 µM
- TGI (SK-MEL-28 melanoma): 64.4 µM
- TGI (EKVX NSCLC): > 100 µM
- TGI (U251 CNS): > 100 µM
- TGI (HL-60(TB) leukemia): 88.5 µM
- TGI (M19-MEL melanoma): > 100 µM
- TGI (OVCAR-5 ovarian): > 100 µM
- TGI (HCT-15 colon): > 100 µM
- TGI (OVCAR-4 ovarian): > 100 µM
- TGI (SNB-75 CNS): > 100 µM
- TGI (DMS 114 small cell lung): > 100 µM
- TGI (SF-268 CNS): > 100 µM
- TGI (IGROV1 ovarian): > 100 µM
- TGI (CCRF-CEM leukemia): > 100 µM
- TGI (HOP-18 NSCLC): > 100 µM
- TGI (KM20L2 colon): > 100 µM
- TGI (HT29 colon): > 100 µM
- TGI (A549 NSCLC): > 100 µM
- TGI (HCT-116 colon): > 100 µM
